{"source": "patent US20130123261A1", "about": "“ISOXAZOLINE COMPOUNDS IN TYPE 2 DIABETES AND OTHER MALADIES” (CPSI STOCKHOLDER TRUST, priority 2009, published 2013)", "test_system": "STZ-induced NIDDM in outbred ICR mice", "assay": "Effect of orally administered MIF antagonist on STZ-induced NIDDM in ICR mice", "type": "in vivo", "conditions": "for blood glucose levels: STZ 90 mg/Kg i.p., oral, daily single dose for 30 days; for blood glucose levels / serum levels of inflammatory cytokines / pro-inflammatory cytokine production: dose not stated", "procedure": "ICR, MIF−/− BALB/c and BALB/c mice were fasted 20 hr before induction of diabetes with a single i.p. injection of STZ 90 mg/Kg (for ICR mice) or 130 mg/kg (for BALB/c mice) (Sigma, St. Louis, Mo., U.S.A.) freshly dissolved in 0.05 M citrate buffer, pH 4.5 following the protocol previously reported (13;14). Normal mice of each strain were injected with equivalent volume of citrate buffer as negative controls.\nBlood samples from WT and MIF−/− mice were collected at 0, 1, 2, 4, 6, 8, and 10 weeks after STZ injection by tail snipping. Serum glucose levels were determined using Accu-Chek® glucometer. Body weights were measured immediately before blood collection. The animals were kept in individual metabolic cages for 24 hrs and provided with drinking water (100 ml) and food (75 g). The water and food consumption as well as urine output over a 24 hr period was determined. This process was repeated every week until 10 weeks after STZ induction.\nFollowing administration of STZ, blood was collected at 1-week intervals by tail snips. Levels of TNF-α, IL-1β, IL-6, IL-4, IL-10, resistin (all from Peprotech, Mexico), and insulin (Lincon, St. Charles, Mo.) in sera were determined by ELISA as per the manufacturer's instructions.\nAge and sex-matched ICR mice were fasted for 20 hrs and then injected i.p. with STZ (90 mg/Kg). Six-hours later following STZ injection mice were administered CSP1306 or PBS daily in a single dose orally for 30 days. Blood was collected by tail snipping once every week to measure glucose levels using Accu-Chek® glucometer and to determine cytokine levels by ELISA as described above. CPSI 1306 has the following formula: […]\nNIDDM was induced in ICR mice by a single intraperitoneal injection of STZ (90 mg/kg). On day 5 post-STZ injection and thereafter mice were orally administered CPSI-1306 (1 mg/kg or 0.1 mg/Kg) daily for 30 days. Mice were bled once a week by tail sniping and levels of glucose (A) and inflammatory cytokines IL-6 (B) and TNF-α (C) in the blood were determined. The data are from one representative experiment out of three. * p<0.05.", "key": {"[1]": {"conditions": "ICR mice with STZ injection, 0.1 and 0.01 mg/kg"}, "[2]": {"conditions": "ICR mice, STZ-induced NIDDM, oral administration, ELISA"}}}
{"smiles": "O=C(C[C@H]1CC(c2ccc(F)cc2F)=NO1)N1CCOCC1", "note": "[CPSI-1306]", "values": [{"measurement": "blood glucose", "setting": "[1]", "result": "significant reduction"}, {"measurement": "polyuria", "setting": "[1]", "result": "less polyuria"}, {"measurement": "serum levels of inflammatory cytokines", "setting": "[1]", "result": "significant reduction"}, {"measurement": "severity of NIDDM", "setting": "[1]", "result": "reduced severity of NIDDM"}, {"measurement": "blood glucose levels after stoppage of treatment", "setting": "ICR mice with STZ injection, after stoppage of treatment, data not shown", "result": "spike in blood glucose levels"}, {"measurement": "blood glucose levels", "setting": "ICR mice, listed as CSP156", "result": "significant drop"}, {"measurement": "blood glucose levels", "setting": "ICR mice, listed as CSP1306", "result": "significantly lowered blood glucose levels in majority of animals"}, {"measurement": "blood glucose levels", "setting": "ICR mice, listed as CSPI-1306", "result": "highly effective"}, {"measurement": "level of pro-inflammatory cytokine IL-6 in the sera", "setting": "[2]", "result": "significant reduction"}, {"measurement": "level of pro-inflammatory cytokine TNF-α in the sera", "setting": "[2]", "result": "significant reduction"}, {"measurement": "serum levels of inflammatory cytokines / pro-inflammatory cytokine production", "setting": "ICR mice, STZ-induced NIDDM, oral administration, listed as CSP156", "result": "reduction in serum levels of inflammatory cytokines"}, {"measurement": "serum levels of inflammatory cytokines / pro-inflammatory cytokine production", "setting": "ICR mice, STZ-induced NIDDM, oral administration, listed as CSPI-1306", "result": "highly effective in suppressing pro-inflammatory cytokine production"}, {"measurement": "severity and progression of STZ-induced NIDDM (FIG. 6)", "setting": "outbred ICR mice, STZ 90 mg/kg i.p., oral 1 mg/kg or 0.1 mg/Kg daily for 30 days from day 5 post-STZ", "result": "Significantly Reduces Severity and Progression"}]}
